Laboratory results from PubChem BioAssay AID1671243.

Biological target: Casein kinase I isoform alpha (Homo sapiens) (UniProt P48729)
Assay: inhibition of CK1 alpha activity – biochemical, Z'-LYTE, FRET, direct format, dose response (AID 1671243)
Details: Z'-LYTE FRET kinase activity assay

Casein kinase I isoform alpha (Homo sapiens), sequence (P48729 whole entry, looked up, canonical isoform): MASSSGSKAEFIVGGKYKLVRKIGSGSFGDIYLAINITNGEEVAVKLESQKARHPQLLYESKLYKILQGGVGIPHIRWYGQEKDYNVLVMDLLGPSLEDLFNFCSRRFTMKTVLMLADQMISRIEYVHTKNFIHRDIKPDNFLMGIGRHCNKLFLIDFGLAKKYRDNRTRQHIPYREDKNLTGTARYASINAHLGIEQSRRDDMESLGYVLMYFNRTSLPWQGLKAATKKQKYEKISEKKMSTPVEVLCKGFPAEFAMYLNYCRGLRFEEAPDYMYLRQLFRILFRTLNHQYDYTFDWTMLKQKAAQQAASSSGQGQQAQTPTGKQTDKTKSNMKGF

IC50: 17.6 µM
Compound: Brc1c(Br)c(Br)c2n[nH]nc2c1Br
